This assay concerns FGFR3 enzyme. In words: FGFR Enzymatic Assay (FRET peptide phosphorylation), FGFR3. The format is biochemical. The note with it: IC50 ratio showing FGFR3 selectivity; Table 2A, pre-incubated for 4 hours. The protocol:
The inhibitor potency of the exemplified compounds was measured in an enzyme assay that measures peptide phosphorylation using FRET measurements to detect product formation. Inhibitors were serially diluted in DMSO and a volume of 0.5 μL was transferred to the wells of a 384-well plate.
GraphPad prism3 was used to analyze the data.
On to `COc1cc(OC)c(F)c(N2Cc3cnc(-c4cn(C)nc4C)cc3N(c3ccc(CC#N)cc3)C2=O)c1F` [Example 97, 2-(4-(3-(2,6-difluoro-3,5-dimethoxyphenyl)-7-(1,3-dimethyl-1H-pyrazol-4-yl)-2-oxo-3,4-dihydropyrido[4,3-d]pyrimidin-1(2H)-yl)phenyl)acetonitrile], for which the FGFR1/FGFR3 is on record as above 5 and the FGFR4/FGFR3 was above 10.
For the compound `COc1cc(OC)c(F)c(N2Cc3cnc(-c4cn(C)nc4C)cc3N(c3ccc(S(C)(=O)=O)cc3)C2=O)c1F` [Example 98, 3-(2,6-difluoro-3,5-dimethoxyphenyl)-7-(1,3-dimethyl-1H-pyrazol-4-yl)-1-(4-(methylsulfonyl)phenyl)-3,4-dihydropyrido[4,3-d]pyrimidin-2(1H)-one], the FGFR1/FGFR3 is on record as above 5 and the FGFR4/FGFR3 is listed as above 10.
As to `COc1cc(OC)c(F)c(N2Cc3cnc(-c4cn(C)nc4C)cc3N(c3cccc(F)c3)C2=O)c1F` [Example 99, 3-(2,6-difluoro-3,5-dimethoxyphenyl)-7-(1,3-dimethyl-1H-pyrazol-4-yl)-1-(3-fluorophenyl)-3,4-dihydropyrido[4,3-d]pyrimidin-2(1H)-one], the FGFR1/FGFR3 was above 5 and the FGFR4/FGFR3 is above 5.
With `COc1cc(OC)c(F)c(N2Cc3cnc(-c4cn(C)nc4C)cc3N(c3ccn(C)n3)C2=O)c1F` [Example 100, 3-(2,6-difluoro-3,5-dimethoxyphenyl)-7-(1,3-dimethyl-1H-pyrazol-4-yl)-1-(1-methyl-1H-pyrazol-3-yl)-3,4-dihydropyrido[4,3-d]pyrimidin-2(1H)-one], the FGFR1/FGFR3 is on record as above 5 and the FGFR4/FGFR3 is above 5.
Regarding `COc1cc(OC)c(F)c(N2Cc3cnc(-c4cn(C)nc4C)cc3N(c3ccc(F)c(F)c3)C2=O)c1F` [Example 102, 3-(2,6-difluoro-3,5-dimethoxyphenyl)-1-(3,4-difluorophenyl)-7-(1,3-dimethyl-1H-pyrazol-4-yl)-3,4-dihydropyrido[4,3-d]pyrimidin-2(1H)-one], the FGFR1/FGFR3 is listed as above 3 and the FGFR4/FGFR3 is above 10.
For the compound `COc1cc(OC)c(F)c(N2Cc3cnc(-c4cn(C)nc4C)cc3N(c3cc(F)cc(F)c3)C2=O)c1F` [Example 103, 3-(2,6-difluoro-3,5-dimethoxyphenyl)-1-(3,5-difluorophenyl)-7-(1,3-dimethyl-1H-pyrazol-4-yl)-3,4-dihydropyrido[4,3-d]pyrimidin-2(1H)-one], the FGFR1/FGFR3 is listed as above 3 and the FGFR4/FGFR3 was above 5.
Turning to `COc1ccc(N2C(=O)N(c3c(F)c(OC)cc(OC)c3F)Cc3cnc(-c4cn(C)nc4C)cc32)cc1` [Example 104, 3-(2,6-difluoro-3,5-dimethoxyphenyl)-7-(1,3-dimethyl-1H-pyrazol-4-yl)-1-(4-methoxyphenyl)-3,4-dihydropyrido[4,3-d]pyrimidin-2(1H)-one], the FGFR1/FGFR3 was above 3 and the FGFR4/FGFR3 was above 5.
Regarding `COc1cc(OC)c(F)c(N2Cc3cnc(-c4cn(C)nc4C)cc3N(c3ncccn3)C2=O)c1F` [Example 105, 3-(2,6-difluoro-3,5-dimethoxyphenyl)-7-(1,3-dimethyl-1H-pyrazol-4-yl)-1-(pyrimidin-2-yl)-3,4-dihydropyrido[4,3-d]pyrimidin-2(1H)-one], the FGFR1/FGFR3 is recorded as above 3 and the FGFR4/FGFR3 is listed as above 5.
For `CCc1cnc(N2C(=O)N(c3c(F)c(OC)cc(OC)c3F)Cc3cnc(-c4cn(C)nc4C)cc32)cn1` [Example 106, 3-(2,6-difluoro-3,5-dimethoxyphenyl)-7-(1,3-dimethyl-1H-pyrazol-4-yl)-1-(5-ethylpyrazin-2-yl)-3,4-dihydropyrido[4,3-d]pyrimidin-2(1H)-one], the FGFR1/FGFR3 was above 3 and the FGFR4/FGFR3 is given as above 5.
On to `COc1cc(OC)c(F)c(N2Cc3cnc(-c4cn(C)nc4C)cc3N(c3cnc(C)cn3)C2=O)c1F` [Example 107, 3-(2,6-difluoro-3,5-dimethoxyphenyl)-7-(1,3-dimethyl-1H-pyrazol-4-yl)-1-(5-methylpyrazin-2-yl)-3,4-dihydropyrido[4,3-d]pyrimidin-2(1H)-one], for which the FGFR1/FGFR3 is above 3 and the FGFR4/FGFR3 is above 10.
Take `COc1cc(OC)c(F)c(N2Cc3cnc(-c4cn(C)nc4C)cc3N(C[C@H]3CCOC3)C2=O)c1F` [Example 108, (R)-3-(2,6-difluoro-3,5-dimethoxyphenyl)-7-(1,3-dimethyl-1H-pyrazol-4-yl)-1-((tetrahydrofuran-3-yl)methyl)-3,4-dihydropyrido[4,3-d]pyrimidin-2(1H)-one]: the FGFR1/FGFR3 is reported as above 3 and the FGFR4/FGFR3 is recorded as above 3.
With `COc1cccc(N2C(=O)N(c3c(F)c(OC)cc(OC)c3F)Cc3cnc(-c4cn(C)nc4C)cc32)c1` [Example 109, 3-(2,6-difluoro-3,5-dimethoxyphenyl)-7-(1,3-dimethyl-1H-pyrazol-4-yl)-1-(3-methoxyphenyl)-3,4-dihydropyrido[4,3-d]pyrimidin-2(1H)-one], the FGFR1/FGFR3 is above 3 and the FGFR4/FGFR3 was above 10.
Regarding `COc1cc(OC)c(F)c(N2Cc3cnc(-c4cn(C)nc4C)cc3N(c3ccccc3F)C2=O)c1F` [Example 110, 3-(2,6-difluoro-3,5-dimethoxyphenyl)-7-(1,3-dimethyl-1H-pyrazol-4-yl)-1-(2-fluorophenyl)-3,4-dihydropyrido[4,3-d]pyrimidin-2(1H)-one], the FGFR1/FGFR3 is above 3 and the FGFR4/FGFR3 is above 5.
With `CNS(=O)(=O)c1cccc(N2C(=O)N(c3c(F)c(OC)cc(OC)c3F)Cc3cnc(-c4cn(C)nc4C)cc32)c1` [Example 111, 3-(3-(2,6-difluoro-3,5-dimethoxyphenyl)-7-(1,3-dimethyl-1H-pyrazol-4-yl)-2-oxo-3,4-dihydropyrido[4,3-d]pyrimidin-1(2H)-yl)-N-methylbenzenesulfonamide], the FGFR1/FGFR3 is on record as above 3 and the FGFR4/FGFR3 is on record as above 5.
Turning to `COc1cnc(N2C(=O)N(c3c(F)c(OC)cc(OC)c3F)Cc3cnc(-c4cn(C)nc4C)cc32)cn1` [Example 112, 3-(2,6-difluoro-3,5-dimethoxyphenyl)-7-(1,3-dimethyl-1H-pyrazol-4-yl)-1-(5-methoxypyrazin-2-yl)-3,4-dihydropyrido[4,3-d]pyrimidin-2(1H)-one], the FGFR1/FGFR3 is above 3 and the FGFR4/FGFR3 is on record as above 5.
Taken in the same sequence, the figures for `COc1cc(OC)c(F)c(N2Cc3cnc(-c4cn(C)nc4C)cc3N(c3ccc(C(=O)N(C)C)cc3)C2=O)c1F` [Example 113, 4-(3-(2,6-difluoro-3,5-dimethoxyphenyl)-7-(1,3-dimethyl-1H-pyrazol-4-yl)-2-oxo-3,4-dihydropyrido[4,3-d]pyrimidin-1(2H)-yl)-N,N-dimethylbenzamide] were above 3 and above 5.
Taken in the same sequence, the figures for `COc1cc(OC)c(F)c(N2Cc3cnc(-c4cn(C)nc4C)cc3N(CCc3cnn(C)c3)C2=O)c1F` [Example 114, 3-(2,6-difluoro-3,5-dimethoxyphenyl)-7-(1,3-dimethyl-1H-pyrazol-4-yl)-1-(2-(1-methyl-1H-pyrazol-4-yl)ethyl)-3,4-dihydropyrido[4,3-d]pyrimidin-2(1H)-one] were above 3 and above 5.
Consider `COc1cc(OC)c(F)c(N2Cc3cnc(-c4cn(C)nc4C)cc3N(c3ccc(-c4nnc(C)o4)cc3)C2=O)c1F` [Example 115, 3-(2,6-difluoro-3,5-dimethoxyphenyl)-7-(1,3-dimethyl-1H-pyrazol-4-yl)-1-(4-(5-methyl-1,3,4-oxadiazol-2-yl)phenyl)-3,4-dihydropyrido[4,3-d]pyrimidin-2(1H)-one], for which the FGFR1/FGFR3 is on record as above 3 and the FGFR4/FGFR3 is on record as above 5.
In the case of `COC(=O)N1CCC(N2C(=O)N(c3c(F)c(OC)cc(OC)c3F)Cc3cnc(-c4cn(C)nc4C)cc32)CC1` [Example 122, Methyl 4-(3-(2,6-difluoro-3,5-dimethoxyphenyl)-7-(1,3-dimethyl-1H-pyrazol-4-yl)-2-oxo-3,4-dihydropyrido[4,3-d]pyrimidin-1(2H)-yl)piperidine-1-carboxylate], the FGFR1/FGFR3 is given as above 5 and the FGFR4/FGFR3 is recorded as above 5.
Take `COC(=O)Nc1ccc(N2C(=O)N(c3c(F)c(OC)cc(OC)c3F)Cc3cnc(-c4cn(C)nc4C)cc32)cc1` [Example 123, Methyl 4-(3-(2,6-difluoro-3,5-dimethoxyphenyl)-7-(1,3-dimethyl-1H-pyrazol-4-yl)-2-oxo-3,4-dihydropyrido[4,3-d]pyrimidin-1(2H)-yl)phenylcarbamate]: the FGFR1/FGFR3 was above 5 and the FGFR4/FGFR3 is reported as above 3.
Regarding `COc1cc(OC)c(F)c(N2Cc3cnc(-c4cn(C)nc4C)cc3N(Cc3cnn(C4CC4)c3)C2=O)c1F` [Example 124, 1-((1-cyclopropyl-1H-pyrazol-4-yl)methyl)-3-(2,6-difluoro-3,5-dimethoxyphenyl)-7-(1,3-dimethyl-1H-pyrazol-4-yl)-3,4-dihydropyrido[4,3-d]pyrimidin-2(1H)-one], the FGFR1/FGFR3 was above 10 and the FGFR4/FGFR3 is on record as above 10.
As to `COc1cc(OC)c(F)c(N2Cc3cnc(-c4cn(C)nc4C)cc3N(Cc3cnn(CC#N)c3)C2=O)c1F` [Example 125, 2-(4-((3-(2,6-difluoro-3,5-dimethoxyphenyl)-7-(1,3-dimethyl-1H-pyrazol-4-yl)-2-oxo-3,4-dihydropyrido[4,3-d]pyrimidin-1(2H)-yl)methyl)-1H-pyrazol-1-yl)acetonitrile], the FGFR1/FGFR3 is listed as above 5 and the FGFR4/FGFR3 is on record as above 5.
On to `COc1cc(OC)c(F)c(N2Cc3cnc(-c4cn(C)nc4C)cc3N(c3cn[nH]c3)C2=O)c1F` [Example 129, 3-(2,6-difluoro-3,5-dimethoxyphenyl)-7-(1,3-dimethyl-1H-pyrazol-4-yl)-1-(1H-pyrazol-4-yl)-3,4-dihydropyrido[4,3-d]pyrimidin-2(1H)-one], for which the FGFR1/FGFR3 is listed as above 5 and the FGFR4/FGFR3 is listed as above 10.

These data come from US11173162B2, “Bicyclic heterocycles as FGFR4 inhibitors” (Incyte Corporation, priority 2015, dated 2021).
